Measured values from patent US12667569B2, “Use of sepiapterin and metabolites thereof to treat radiation exposure” (PTC Therapeutics MP, Inc., priority 2019, dated 2026).
“Also recorded” adds a separate entry of the source.

Assays:
C57L/J mice [1] = assay: Echocardiography: contractile reserve (isoproterenol response), myocardial performance index, IRT after irradiation; format: in vivo
Procedure: Both male and female C57L/J wild-type 6-8-week-old mice were purchased from Jackson Laboratory (Bar Harbor, ME). The mice were housed with a 12:12 h light-dark schedule and access to water and food ad libitum. The experiments were conducted under the guidelines of laboratory animals for biomedical research published by the National Institutes of Health (rev. 2011). The study protocol was approved by the Institutional Animal Care and Use Committee of Virginia Commonwealth University.
(§1) Equal numbers of male and female mice were distributed to each group. While under ketamine/xylazine anesthesia (100 mg/kg and 10 mg/kg, respectively) mice received 5 Gy total body irradiation (TBI), immediately followed by a top-up dose of 6.5 Gy to the thorax, for a total thoracic dose of 11.5 Gy, using a Varian 21 EX LINAC (Palo Alto, CA). Twenty-four hours post-irradiation, mice were treated once daily for 6 days by oral gavage with 1 mg/kg sepiapterin or 5 mg/kg BH4 dissolved in water (FIG. 1).
All mice underwent transthoracic echocardiography at baseline (before irradiation (IR)), at 8, 30, 60, 90 and 180 days, under light anesthesia (30 mg/kg pentobarbital sodium). Echocardiography was performed with the Vevo770 imaging system (VisualSonics, Toronto, Ontario, Canada) and a 30-MHz probe. The heart was visualized in B-mode from parasternal short-axis and apical views. The left ventricular (LV) end-diastolic diameter (EDD), LV end-systolic diameter (ESD), LV anterior wall diastolic thickness (AWDT), and LV posterior wall diastolic thickness (PWDT), LV anterior wall systolic thickness (AWST), and LV posterior wall systolic thickness (PWST) were measured at M-mode, according to the American Society of Echocardiography recommendations. LV ejection fraction (EF), and LV mass were calculated from the measurements of wall thickness and chamber diameters. The LVEF was derived using the Teicholz formula (LVEF=[LVEDD3−LVESD3]/LVEDD3), as previously described. The transmitral LV outflow tract Doppler spectra (E, A, ET) was recorded from an apical four-chamber view, and the myocardial performance index (MPI) was calculated as the […] isovolumetric contraction time (ICT) and isovolumetric relaxation time (IRT) divided by the ejection time (ED. The investigators performing and reading the echocardiograms were blinded to the treatment allocation. A beta-adrenergic agonist, isoproterenol (Sigma Aldrich, St. Louis, MO, USA) 20 ng/mouse, was used to assess cardiac contractility in irradiated mice without SP treatment. Cardiac contractility (contractile reserve) was expressed as percentage change in LVEF measured at rest (LVEFr) and 3 min after isoproterenol injection (LVEFi) and calculated as [(LVEFi−LVEFr)/LVEFr]*100. Measurements of the contractile reserve were taken at baseline, 8, 30, 60, 90 and 180 days after IR. Echocardiogram assessment was performed by an operator blinded to treatment allocation.

[2] = tested on: cytokines' mRNAs in heart tissue; assay: Cytokine mRNA expression (qPCR) in heart tissue after irradiation; format: in vivo, mice; conditions: 8 days, 30 days, 16 weeks after IR, SP vs vehicle
Procedure: (§2) Total RNA was isolated from the lung and heart tissue samples following the manufacturers instructions with the RNeasy Mini kit (Qiagen). The RNA concentration was evaluated by using a NanoDrop ND-1000 spectrophotometer (Thermo Scientific). RNA purity was assessed by the ratios of A260/A280 and A260/A230. RNA integrity was evaluated by the ratio of 28S/18S ribosomal RNA (rRNA) and the RNA integrity number (RIN) using an Agilent 2100 BioAnalyzer (Agilent Technologies). cDNA synthesis and genomic DNA elimination were performed by using RT2 First Strand Kit (QIAGEN). Samples were amplified using RT2 SYBR® Green qPCR Mastermix probes from QIAGEN on the QuantStudio 5 RT-PCR machine (Applied Biosystems). The following RT2 qPCR Primer Assays (QIAGEN) were used: Mouse Actin-β (NM_007393), Mouse Bmp2 (NM_007553), Mouse Ccl2 (NM_011333), Mouse Ctgf (NM_010217), Mouse IL-1β (NM_008361), Mouse IL-6 (NM_031168), Mouse IL-10 (NM_010548), Mouse IL-17α (NM_010552), Mouse Runx2 (NM_001145920), Mouse Spp1 (NM_001204201), Mouse TGF-β1 (NM_011577), Mouse Trim72 (NM_001079932).

exosomal miRNAs = assay: Serum exosomal miRNA expression after irradiation; format: in vivo, mice
Procedure: Blood was collected by cardiac puncture using EDTA vials. Blood samples were centrifuged 3,000×g for 25 minutes, and plasma fraction was aliquoted and saved in a vapor phase of liquid nitrogen. Exosomes were isolated from the plasma of mice at the time points shown in FIGS. 6A-6C using an Exosome isolation kit from 101Bio. Exosome concentrations were quantified by EXOCET Exosome Quantitation Kit (System Biosciences). Equal exosome number from 5 animals were combined for each time point, and total exosomal RNA was extracted by using miRNeasy Micro Kit (QIAGEN). For the miRNAs expression profiling the miRCURY LNA™ Universal RT microRNA PCR assay (QIAGEN) and ExiLENT SYBR® Green Maser Mix (QIAGEN) were used. The initial estimation of exosomal miRNAs expression was performed by using Serum/Plasma LNA™ miRNA PCR Panel (Cat. #YAHS-106Y. QIAGEN) on the QuantStudio 5 RT-PCR machine (Applied Biosystems).
The first group included let-7a-5p, miR-1, miR-106b-3p, miR-106b-5p, miR-126-3p, miR-181a-5p, miR-335-3p, and miR-335-5p. […] The second group included let-7g-5p, let-7i-5p, and miR-16-5p. There were no significant differences between males and females both in terms of exosomal miRNA expression altered by IR or the effects of sepiapterin on miRNA expression.

[3] = tested on: cytokines' mRNAs in lung tissue; assay: Cytokine mRNA expression (qPCR) in lung tissue after irradiation; format: in vivo, mice; conditions: 16 weeks after IR, mean±SD, vehicle 4.25±0.537
C57L/J mice [4] = assay: Assessment of lung injury by breathing rate (MouseOx) after irradiation; format: in vivo; conditions: irradiated mice
Procedure: as §1
The breathing rate was measured every other week starting in week 6 using the Mouse Ox system (STARR Life Sciences Corp., Allison Park, PA). The animal was placed under ketamine/xylazine anesthesia and shaved in the area of analysis. 10 min post injection the animal was placed in a supine position with the sensor clipped to the upper thigh. The breathing rate was recorded for 3 min. The breathing rate was calculated using an algorithm in the Mouse Ox software.

C57L/J mice [5] = assay: Survival over 180 days post IR (Kaplan Meyer); format: in vivo
Procedure: as §1
To determine whether the improved cardiopulmonary function impacted overall survival the mice were followed over 180 days post IR.

[6] = tested on: plasma IL-6, fibrinogen, neutrophil elastase, C-reactive protein; assay: Plasma ELISA of IL-6, fibrinogen, neutrophil elastase, C-reactive protein after irradiation; format: in vivo, mice
Procedure: At the time of sacrifice, blood was obtained by heart puncture into EDTA containing tubes and centrifuged at 3000 rpm for 25 mins to isolate the plasma. The following ELISA plates from Abcam were used for analysis: fibrinogen (ab213478), neutrophil elastase (ab252356), C-reactive protein (ab157712) and IL-6 (ab100713). Plasma samples were processed and ELISA kits were run according to manufacturer recommendations. All cytokines were reported with an absolute unit. Key molecular players of the coagulation cascade like tissue factor, thrombin, and fibrinogen are epidemiologically and mechanistically linked with an inflammatory component. Genetic and pharmacologic studies have unraveled pivotal roles for fibrinogen in determining the extent of local or systemic inflammation. Neutrophil elastase, a serine protease present in the azurophil granules of neutrophils, is released in an inflammatory state and disintegrates extracellular matrices due to its low substrate specificity, resulting in tissue injury. Neutrophil elastase is one of the most destructive enzymes in the body. Once unregulated, this enzyme disturbs the function of the lung permeability barrier and induces the release of pro-inflammatory cytokines with stimulation of acute lung injury. […] High levels of IL-6 in blood plasma may exacerbate the inflammatory response in the lung tissue, which ultimately causes IL-6 leakage to bronchoalveolae and further lung damage. High levels of IL-6 in the lung tissue may attract more inflammatory cells such as neutrophils, monocytes, macrophages to the injured local lung which ultimately causes serious damage to the lung and leads to chronic fibrosis. An acute raise of IL-6 in plasma can lead to increases in C Reactive Protein (CRP). C Reactive Protein (CRP) is produced by the liver and is a biomarker for general stress response to inflammation or infectious agents. It was shown that serum CRP level may be an effective indicator for predicting the occurrence of radiation pneumonitis and valuable factor for evaluating radiation-induced lung-injury extent.

[7] = tested on: cytokines' mRNAs in lung tissue; assay: Cytokine mRNA expression (qPCR) in lung tissue after irradiation; format: in vivo, mice
Procedure: as §2

[8] = 30 days after IR, SP-treated vs vehicle-treated
[9] = irradiated mice, BH4 5 mg/kg oral once daily 6 days from 24 h post-IR

Question: Which results are given for `C[C@H](O)C(=O)C1=Nc2c([nH]c(N)nc2=O)NC1` [SP, Sepiapterin]?
Answer: systolic and diastolic function response, evaluated by sex (C57L/J mice [1]; irradiated male vs female mice, 1 mg/kg SP): no significant differences in heart function response; mitigation of loss in contractile reserve, evaluated by sex (C57L/J mice [1]; irradiated male vs female mice, SP 1 mg/kg): equally effective in mitigating this loss in contractile reserve; contractile reserve (response to isoproterenol) (C57L/J mice [1]; irradiated mice (5 Gy TBI + 6.5 Gy thorax), SP 1 mg/kg oral once daily 6 days from 24 h post-IR, up to 180 days, vs vehicle): restore the response to beta-adrenergic stimulation by isoproterenol; also recorded: enhanced contractile reserve; also recorded: blunted the drop in the contractile reserve at all the time points; myocardial performance index (Tei index) and isovolumetric relaxation time (IRT); systolic and diastolic function (C57L/J mice [1]; irradiated mice, SP 1 mg/kg oral once daily 6 days from 24 h post-IR, up to 180 days, vs vehicle): ameliorating the progressive increase in myocardial performance index and IRT; also recorded: improved systolic and diastolic function; also recorded: blunted the increase in the Tei index and IRT at all the time points; expression of all evaluated cytokines (Bmp2, Ccl2, Ctgf, IL-1β, IL-6, IL-10, IL-17A, IL-33, Runx2, Spp2, TGF-β1, Trim72) [2]: no significant difference in expression between Vehicle-treated and SP-treated groups; exosomal expression of let-7a-5p, miR-1, miR-106b-3p, miR-106b-5p, miR-126-3p, miR-181a-5p, miR-335-3p, miR-335-5p (exosomal miRNAs; [8]): significantly lower in vehicle-treated animals comparing with SP-treated animals; exosomal expression of let-7g-5p, let-7i-5p, miR-16-5p (exosomal miRNAs; [8]): significantly higher in vehicle-treated animals comparing with SP-treated animals; relative expression of Spp2 mRNA [3]: 2.38±0.211; time to development of lung injury (C57L/J mice [4]; 1 mg/kg/day SP for 6 days, vehicle 10 weeks): 14 weeks; lung function (breathing rate) (C57L/J mice [4]; 1 mg/kg/day SP for 6 days, vs vehicle, 1 mg/kg/day): significantly reduced impairment of lung function at all points measured; also recorded: decreasing breathing frequency; also recorded: significantly improved pulmonary function at all points measured; mice alive at 180 days (C57L/J mice [5]; 11.5 Gy total thoracic dose, 1 mg/kg/day SP for 6 days, untreated 40%): 71%; overall survival (C57L/J mice [5]; 11.5 Gy total thoracic dose, 1 mg/kg/day SP for 6 days, vs irradiated without treatment, 1 mg/kg/day): significantly delayed and overall improved survival; also recorded: increased survival; plasma level of IL-6 ([6]; 4 days after IR, vehicle 304.05±153.23): 97.00 ± 45.71 pg/mL; plasma level of IL-6 ([6]; 8 days after IR, vehicle 606.09±72.72): 49.85 ± 39.36 pg/mL; plasma level of fibrinogen ([6]; 8 days after IR, vehicle 948.77±98.54): 332.38 ± 109.02 µg/mL; plasma level of neutrophil elastase ([6]; 180 days after IR, vehicle 25.21±6.54): 12.15 ± 2.87 ng/mL; plasma level of IL-6 ([6]; 180 days after IR, vehicle 197.22±55.55): 40.06 ± 43.26 pg/mL; plasma C reactive protein ([6]; any time-point after IR, SP vs vehicle): did not demonstrate significant difference; relative expression of TGF-β1 mRNA ([7]; 16 weeks after IR, mean±SD, vehicle 3.26±0.339): 1.53±0.367; relative expression of IL-17A mRNA ([7]; 16 weeks after IR, mean±SD, vehicle 4.5±0.824): 2.12±1.173; relative expression of IL-6 mRNA ([7]; 16 weeks after IR, mean±SD, vehicle 28.85±5.987): 17.05±4.12; relative expression of IL-17A mRNA ([7]; 8 days after IR, mean±SD, vehicle 9.19±2.783): 2.71±1.874; relative expression of IL-6 mRNA ([7]; 8 days after IR, mean±SD, vehicle 16.88±4.91): 1.36±0.509; relative expression of IL-1β mRNA ([7]; 8 days after IR, relative to non-irradiated control, mean±SD, vehicle 2.9±0.649): 1.54±0.825; relative expression of Ccl2 mRNA ([7]; 30 days after IR, SP vs vehicle): no significant difference between Vehicle-treated and SP-treated animal groups; relative expression of IL-1β mRNA ([7]; 30 days after IR, mean±SD, vehicle 3.39±0.532): 1.66±0.51; relative expression of IL-17A mRNA ([7]; 30 days after IR, mean±SD, vehicle 5.65±2.263): 1.49±0.379; relative expression of IL-6 mRNA ([7]; 30 days after IR, mean±SD, vehicle 9.09±0.533): 4.96±0.905

Question: Which contractile reserve (C57L/J mice [1]; [9]) does the source give for `C[C@H](O)[C@H](O)[C@H]1CNc2[nH]c(N)nc(=O)c2N1` [BH4, Tetrahydrobiopterin] here?
Answer: The contractile reserve was “enhanced contractile reserve”.

Question: And the “systolic and diastolic function” value (C57L/J mice [1]; [9])?
Answer: Its value is “improved systolic and diastolic function”.

Question: And the “exosomal expression of miR-15b-3p, miR-106a-5p, miR-133b, miR-136-5p, miR-451a, miR-1, miR-335-3p, let-7d-3p, let-7c-5p” value (exosomal miRNAs; irradiated mice, BH4 treatment (FIG. 6A))?
Answer: The value was “increases in expression”.

Question: And the “development of lung injury” value (C57L/J mice [4]; 5 mg/kg BH4 for 6 days, vs vehicle)?
Answer: Its value is “significant delay in the development of lung injury”.

Question: And the “lung function (breathing rate)” value (C57L/J mice [4]; 5 mg/kg BH4 for 6 days, vs vehicle, 5 mg/kg)?
Answer: The value was “significantly reduced impairment of lung function at all points measured; also recorded: decreasing breathing frequency”.

Question: And the survival (C57L/J mice [5]; irradiated mice, oral BH4 starting 24 hours after radiation)?
Answer: Its survival is “increased survival”.
